How the values were obtained:
[1] = target: T1, Estrogen receptor (Homo sapiens, UniProt P03372); conditions: sf9; note: in other assays of this panel Not Active means under 50% inhibition at 10 µM
T1 sequence (P03372 whole entry): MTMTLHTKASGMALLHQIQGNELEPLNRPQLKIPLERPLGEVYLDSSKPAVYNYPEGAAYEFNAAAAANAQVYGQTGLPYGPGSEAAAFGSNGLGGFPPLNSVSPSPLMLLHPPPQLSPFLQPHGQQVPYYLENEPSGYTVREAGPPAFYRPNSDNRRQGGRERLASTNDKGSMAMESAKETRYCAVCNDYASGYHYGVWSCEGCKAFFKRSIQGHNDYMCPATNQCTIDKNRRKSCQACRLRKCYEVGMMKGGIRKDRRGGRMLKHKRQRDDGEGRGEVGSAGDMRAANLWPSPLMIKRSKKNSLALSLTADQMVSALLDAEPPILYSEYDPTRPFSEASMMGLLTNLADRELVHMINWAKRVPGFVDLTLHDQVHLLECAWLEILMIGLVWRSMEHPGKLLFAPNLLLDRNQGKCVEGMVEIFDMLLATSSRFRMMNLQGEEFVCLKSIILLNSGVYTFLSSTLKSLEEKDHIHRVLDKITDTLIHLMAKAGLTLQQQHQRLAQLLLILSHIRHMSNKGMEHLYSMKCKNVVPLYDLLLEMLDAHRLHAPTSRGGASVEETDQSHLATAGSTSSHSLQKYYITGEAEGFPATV

[2] = target: T2, Neuropeptide Y receptor type 2 (Homo sapiens, UniProt P49146); type: cell membranes, Membrane; conditions: kan-ts; note: in other assays of this panel Not Active means under 50% inhibition at 10 µM
T2 sequence (P49146 whole entry): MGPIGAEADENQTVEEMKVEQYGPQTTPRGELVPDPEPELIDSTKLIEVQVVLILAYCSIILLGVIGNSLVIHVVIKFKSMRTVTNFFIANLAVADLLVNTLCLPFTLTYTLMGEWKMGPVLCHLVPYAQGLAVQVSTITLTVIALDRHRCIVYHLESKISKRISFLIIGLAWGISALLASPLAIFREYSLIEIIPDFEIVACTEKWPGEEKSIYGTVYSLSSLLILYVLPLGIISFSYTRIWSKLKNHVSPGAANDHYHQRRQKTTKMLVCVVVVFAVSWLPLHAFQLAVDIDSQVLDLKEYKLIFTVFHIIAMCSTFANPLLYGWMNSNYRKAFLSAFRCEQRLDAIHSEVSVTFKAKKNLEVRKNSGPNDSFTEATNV

[3] = target: T3, C-C chemokine receptor type 4 (Homo sapiens, UniProt P51679); type: cell membranes, Membrane; conditions: chem-1; note: in other assays of this panel Not Active means under 50% inhibition at 10 µM
T3 sequence (P51679 whole entry): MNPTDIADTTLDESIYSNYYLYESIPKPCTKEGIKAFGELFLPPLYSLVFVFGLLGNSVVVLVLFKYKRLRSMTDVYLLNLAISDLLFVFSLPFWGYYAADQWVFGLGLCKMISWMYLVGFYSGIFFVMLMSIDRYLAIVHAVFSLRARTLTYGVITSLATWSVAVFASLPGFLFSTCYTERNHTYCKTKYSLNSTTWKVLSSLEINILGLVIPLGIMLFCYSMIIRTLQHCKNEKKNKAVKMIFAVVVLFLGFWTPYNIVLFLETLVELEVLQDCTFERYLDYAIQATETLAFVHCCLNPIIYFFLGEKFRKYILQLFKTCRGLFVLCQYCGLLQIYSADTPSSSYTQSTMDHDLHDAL

[4] = DRUGMATRIX: Leukotriene, BLT (LTB4) radioligand binding (ligand: [3H]LTB4); type: cell membranes, Membrane; conditions: u-937; Not Active = under 50% inhibition at 10 µM
[5] = target: cGMP-specific 3',5'-cyclic phosphodiesterase (Homo sapiens, UniProt O76074); assay: DRUGMATRIX: Phosphodiesterase PDE5 enzyme inhibition (substrate: [3H]cGMP + cGMP); type: tissue-based; conditions: platelet; Not Active = under 50% inhibition at 10 µM
[6] = target: Mu-type opioid receptor (Homo sapiens, UniProt P35372); assay: DRUGMATRIX: Opiate mu (OP3, MOP) radioligand binding (ligand: [3H] Diprenorphine); type: cell membranes, CHO-K1, Membrane; conditions: cho-k1; Not Active = under 50% inhibition at 10 µM
[7] = target: Aldo-keto reductase family 1 member B1 (Rattus norvegicus, UniProt P07943); assay: biochemical; type: tissue-based, Lens of camera-type eye;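 note: inhibition of aldose reductase enzyme activity, measured with DL-glyceraldehyde as the substrate; in other assays of this panel Not Active means under 50% inhibition at 10 µM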
[8] = target: Sodium-dependent dopamine transporter (Homo sapiens, UniProt Q01959); assay: DRUGMATRIX: Dopamine Transporter radioligand binding (ligand: [125I] RTI-55); type: cell membranes, CHO-K1, Membrane; conditions: Not Active = under 50% inhibition at 10 µM
Chain of Sodium-dependent dopamine transporter (Q01959 whole entry): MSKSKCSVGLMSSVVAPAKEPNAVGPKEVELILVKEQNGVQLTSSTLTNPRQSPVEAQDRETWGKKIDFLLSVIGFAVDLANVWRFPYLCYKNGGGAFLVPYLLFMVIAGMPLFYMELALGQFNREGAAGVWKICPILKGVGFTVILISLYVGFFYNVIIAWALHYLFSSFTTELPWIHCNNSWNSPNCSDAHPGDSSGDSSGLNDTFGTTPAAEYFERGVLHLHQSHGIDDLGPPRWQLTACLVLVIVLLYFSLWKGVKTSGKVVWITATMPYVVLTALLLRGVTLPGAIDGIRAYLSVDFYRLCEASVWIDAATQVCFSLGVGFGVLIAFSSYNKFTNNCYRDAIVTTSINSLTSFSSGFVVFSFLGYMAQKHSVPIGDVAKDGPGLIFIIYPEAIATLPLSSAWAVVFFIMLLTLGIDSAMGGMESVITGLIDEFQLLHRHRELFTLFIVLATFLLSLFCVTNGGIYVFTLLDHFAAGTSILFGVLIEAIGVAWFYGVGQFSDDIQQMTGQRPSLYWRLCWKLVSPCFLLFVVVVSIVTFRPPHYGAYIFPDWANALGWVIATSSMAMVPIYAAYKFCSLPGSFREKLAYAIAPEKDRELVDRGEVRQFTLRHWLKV

Chain of Mu-type opioid receptor (P35372 whole entry): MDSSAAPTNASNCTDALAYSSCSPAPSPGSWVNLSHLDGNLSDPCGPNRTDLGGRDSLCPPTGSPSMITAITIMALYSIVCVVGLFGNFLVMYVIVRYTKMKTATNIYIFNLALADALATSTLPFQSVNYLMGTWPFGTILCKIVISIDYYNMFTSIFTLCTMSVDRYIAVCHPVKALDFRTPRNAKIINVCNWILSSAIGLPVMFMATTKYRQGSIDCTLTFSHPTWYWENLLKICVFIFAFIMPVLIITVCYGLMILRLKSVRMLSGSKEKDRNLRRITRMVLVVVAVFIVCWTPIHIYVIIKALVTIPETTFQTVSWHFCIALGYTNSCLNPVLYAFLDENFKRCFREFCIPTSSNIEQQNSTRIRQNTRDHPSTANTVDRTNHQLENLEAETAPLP

| Molecule | IC50 [1] | IC50 [2] | IC50 [3] | IC50 [4] | Ki [4] | IC50 [5] | IC50 [6] | IC50 ([7]; read-out: IC50) [nM] | IC50 ([8]; cho-k1) | IC50 [7] | Ki [1] | Ki [2] | Ki [3] | Ki [5] | Ki [7] | Ki ([8]; cho-k1) | IC50 ([8]; read-out: IC50) [nM] | Ki ([8]; read-out: Ki) [nM] |
| --- | --- | --- | --- | --- | --- | --- | --- | --- | --- | --- | --- | --- | --- | --- | --- | --- | --- | --- |
| C=C(CC)C(=O)c1ccc(OCC(=O)O)c(Cl)c1Cl [ETHACRYNIC ACID] | Not Active | Not Active | Not Active | Not Active | Not Active | Not Active | Not Active | 1150 | Not Active |  |  |  |  |  |  |  |  |  |
| CC(C(=O)O)c1ccc(-c2ccccc2)c(F)c1 (stereo not drawn) [FLURBIPROFEN] | Not Active | Not Active | Not Active | Not Active | Not Active | Not Active | Not Active |  | Not Active | Not Active |  |  |  |  |  |  |  |  |
| COc1ccccc1OCC(O)COC(N)=O (stereo not drawn) [METHOCARBAMOL] | Not Active | Not Active | Not Active | Not Active | Not Active | Not Active | Not Active |  | Not Active | Not Active |  |  |  |  |  |  |  |  |
| CC(C(=O)O)c1ccc(CC2CCCC2=O)cc1 (stereo not drawn) [LOXOPROFEN] | Not Active | Not Active | Not Active | Not Active | Not Active | Not Active | Not Active |  | Not Active | Not Active |  |  |  |  |  |  |  |  |
| CCCCC1C(=O)N(c2ccccc2)N(c2ccccc2)C1=O [PHENYLBUTAZONE] | Not Active | Not Active | Not Active | Not Active | Not Active | Not Active | Not Active |  | Not Active | Not Active |  |  |  |  |  |  |  |  |
| CCN[C@@H](C)Cc1cccc(C(F)(F)F)c1 [DEXFENFLURAMINE] | Not Active | Not Active | Not Active | Not Active | Not Active | Not Active | Not Active |  | Not Active | Not Active |  |  |  |  |  |  |  |  |
| CCC(=O)O[C@H]1[C@H](O[C@@H]2[C@@H](C)[C@H](O[C@H]3C[C@@](C)(OC)[C@@H](O)[C@H](C)O3)[C@@H](C)C(=O)O[C@H](CC)[C@@](C)(O)[C@H](O)[C@@H](C)C(=O)[C@H](C)C[C@@]2(C)O)O[C@H](C)C[C@@H]1N(C)C [ERYTHROMYCIN PROPIONATE] | Not Active | Not Active | Not Active | Not Active | Not Active | Not Active | Not Active |  | Not Active | Not Active |  |  |  |  |  |  |  |  |
| CS(=O)(=O)OCCCCOS(C)(=O)=O [BUSULFAN] | Not Active | Not Active | Not Active | Not Active | Not Active | Not Active | Not Active |  | Not Active | Not Active |  |  |  |  |  |  |  |  |
| POLYVINYL ALCOHOL | Not Active | Not Active | Not Active | Not Active | Not Active | Not Active |  |  | Not Active | Not Active | Not Active | Not Active | Not Active | Not Active | Not Active | Not Active |  |  |
| COBALT(II) ACETYLACETONATE | Not Active | Not Active | Not Active | Not Active | Not Active | Not Active |  |  | Not Active | Not Active | Not Active | Not Active | Not Active | Not Active | Not Active | Not Active |  |  |
| CC(C)(Oc1ccc(C2CC2(Cl)Cl)cc1)C(=O)O (stereo not drawn) [CIPROFIBRATE] | Not Active | Not Active | Not Active | Not Active | Not Active | Not Active | Not Active |  | Not Active | Not Active |  |  |  |  |  |  |  |  |
| Cc1cn[nH]c1 [FOMEPIZOLE] | Not Active | Not Active | Not Active | Not Active | Not Active | Not Active | Not Active |  | Not Active | Not Active |  |  |  |  |  |  |  |  |
| CCc1oc2ccccc2c1C(=O)c1cc(Br)c(O)c(Br)c1 [BENZBROMARONE] | Not Active | Not Active | Not Active | Not Active | Not Active | Not Active | Not Active |  | Not Active | Not Active |  |  |  |  |  |  |  |  |
| CN1C[C@H](C(=O)N[C@]2(C)O[C@@]3(O)[C@@H]4CCCN4C(=O)[C@H](Cc4ccccc4)N3C2=O)C[C@@H]2c3cccc4[nH]cc(c34)C[C@H]21 [DIHYDROERGOTAMINE] | Not Active | Not Active | Not Active | Not Active | Not Active | Not Active | Not Active |  | Not Active | Not Active |  |  |  |  |  |  |  |  |
| CCC[C@@H]1C[C@@H](C(=O)N[C@@H]([C@H]2O[C@H](SC)[C@H](O)[C@@H](O)[C@H]2O)[C@H](C)Cl)N(C)C1 [CLINDAMYCIN] | Not Active | Not Active | Not Active | Not Active | Not Active | Not Active | Not Active |  | Not Active | Not Active |  |  |  |  |  |  |  |  |
| CN(Cc1cnc2nc(N)nc(N)c2n1)c1ccc(C(=O)N[C@@H](CCC(=O)O)C(=O)O)cc1 [METHOTREXATE] | Not Active | Not Active | Not Active | Not Active | Not Active | Not Active | Not Active |  | Not Active | Not Active |  |  |  |  |  |  |  |  |
| C/C=C\c1ccc(O)c(OC)c1 [ISOEUGENOL] | Not Active | Not Active | Not Active | Not Active | Not Active | Not Active | Not Active |  | Not Active | Not Active |  |  |  |  |  |  |  |  |
| Cc1cnc(C(=O)NCCc2ccc(S(=O)(=O)NC(=O)NC3CCCCC3)cc2)cn1 [GLIPIZIDE] | Not Active | Not Active | Not Active | Not Active | Not Active | Not Active | Not Active |  | Not Active | Not Active |  |  |  |  |  |  |  |  |
| CC(CCc1ccc(O)cc1)NCCc1ccc(O)c(O)c1 (stereo not drawn) [DOBUTAMINE] | Not Active | Not Active | Not Active | Not Active | Not Active | Not Active | Not Active |  |  | Not Active |  |  |  |  |  |  | 155 | 123 |
| Cc1cccc(Nc2cc(Cl)nc(SCC(=O)O)n2)c1C [PIRINIXIC ACID] | Not Active | Not Active | Not Active | Not Active | Not Active | Not Active | Not Active | 2820 | Not Active |  |  |  |  |  |  |  |  |  |
| INSULIN HUMAN | Not Active | Not Active | Not Active | Not Active | Not Active | Not Active |  |  | Not Active | Not Active | Not Active | Not Active | Not Active | Not Active | Not Active | Not Active |  |  |
| Clc1cc2c(cc1Cl)Oc1cc(Cl)c(Cl)cc1O2 [2,3,7,8-TETRACHLORODIBENZO-P-DIOXIN] | Not Active | Not Active | Not Active | Not Active | Not Active | Not Active |  |  | Not Active | Not Active |  |  |  |  |  |  |  |  |
